Experimental data as given in patent publication US20180099931A1 (AbbVie S.à.r.l., priority 2016, published 2018).
Read-outs that look alike come from different tables or passages of the source.

Target: T1, F508delCFTR (Homo sapiens, UniProt P13569, DEL508-508)
T1 construct: expressed in transfected cells; host or cells: CFBE41o- human lung-derived epithelial cells (CFBE4lo-F508delCFTR-HRP), doxycycline-inducible
Test: Cell Surface Expression-Horse Radish Peroxidase (CSE-HRP) Assay;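 for Maximum % activity (with co-corrector): co-corrector and positive control are both the same reference corrector at 2 µM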;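 for Maximum % activity (without co-corrector): percent of the 2 µM on-plate positive control corrector response above DMSO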
Assay type: cell-based
Conditions: for Maximum % activity (with co-corrector) / Emax: maximum at any tested concentration, normalized to on-plate positive control; for Emax: read-out: Maximum % activity (without co-corrector)

[1] = CSE-HRP, test compound without co-corrector, read-out: EC50 (without co-corrector)
[2] = CSE-HRP, with co-corrector (2 μM of 3-[(2R,4R)-4-({[1-(2,2-difluoro-1,3-benzodioxol-5-yl)cyclopropyl]carbonyl}amino)-7-methoxy-3,4-dihydro-2H-chromen-2-yl]benzoic acid), read-out: EC50 (with co-corrector)
[3] = CSE-HRP, with co-corrector (2 μM)
[4] = test compound without co-corrector, read-out: EC50 (without co-corrector)
[5] = with co-corrector (2 μM of 3-[(2R,4R)-4-({[1-(2,2-difluoro-1,3-benzodioxol-5-yl)cyclopropyl]carbonyl}amino)-7-methoxy-3,4-dihydro-2H-chromen-2-yl]benzoic acid), read-out: EC50 (with co-corrector)
[6] = test compound without co-corrector
[7] = with co-corrector (2 μM of 3-[(2R,4R)-4-({[1-(2,2-difluoro-1,3-benzodioxol-5-yl)cyclopropyl]carbonyl}amino)-7-methoxy-3,4-dihydro-2H-chromen-2-yl]benzoic acid)

T1 sequence (P13569 with tags, fused parts or gaps DEL508-508): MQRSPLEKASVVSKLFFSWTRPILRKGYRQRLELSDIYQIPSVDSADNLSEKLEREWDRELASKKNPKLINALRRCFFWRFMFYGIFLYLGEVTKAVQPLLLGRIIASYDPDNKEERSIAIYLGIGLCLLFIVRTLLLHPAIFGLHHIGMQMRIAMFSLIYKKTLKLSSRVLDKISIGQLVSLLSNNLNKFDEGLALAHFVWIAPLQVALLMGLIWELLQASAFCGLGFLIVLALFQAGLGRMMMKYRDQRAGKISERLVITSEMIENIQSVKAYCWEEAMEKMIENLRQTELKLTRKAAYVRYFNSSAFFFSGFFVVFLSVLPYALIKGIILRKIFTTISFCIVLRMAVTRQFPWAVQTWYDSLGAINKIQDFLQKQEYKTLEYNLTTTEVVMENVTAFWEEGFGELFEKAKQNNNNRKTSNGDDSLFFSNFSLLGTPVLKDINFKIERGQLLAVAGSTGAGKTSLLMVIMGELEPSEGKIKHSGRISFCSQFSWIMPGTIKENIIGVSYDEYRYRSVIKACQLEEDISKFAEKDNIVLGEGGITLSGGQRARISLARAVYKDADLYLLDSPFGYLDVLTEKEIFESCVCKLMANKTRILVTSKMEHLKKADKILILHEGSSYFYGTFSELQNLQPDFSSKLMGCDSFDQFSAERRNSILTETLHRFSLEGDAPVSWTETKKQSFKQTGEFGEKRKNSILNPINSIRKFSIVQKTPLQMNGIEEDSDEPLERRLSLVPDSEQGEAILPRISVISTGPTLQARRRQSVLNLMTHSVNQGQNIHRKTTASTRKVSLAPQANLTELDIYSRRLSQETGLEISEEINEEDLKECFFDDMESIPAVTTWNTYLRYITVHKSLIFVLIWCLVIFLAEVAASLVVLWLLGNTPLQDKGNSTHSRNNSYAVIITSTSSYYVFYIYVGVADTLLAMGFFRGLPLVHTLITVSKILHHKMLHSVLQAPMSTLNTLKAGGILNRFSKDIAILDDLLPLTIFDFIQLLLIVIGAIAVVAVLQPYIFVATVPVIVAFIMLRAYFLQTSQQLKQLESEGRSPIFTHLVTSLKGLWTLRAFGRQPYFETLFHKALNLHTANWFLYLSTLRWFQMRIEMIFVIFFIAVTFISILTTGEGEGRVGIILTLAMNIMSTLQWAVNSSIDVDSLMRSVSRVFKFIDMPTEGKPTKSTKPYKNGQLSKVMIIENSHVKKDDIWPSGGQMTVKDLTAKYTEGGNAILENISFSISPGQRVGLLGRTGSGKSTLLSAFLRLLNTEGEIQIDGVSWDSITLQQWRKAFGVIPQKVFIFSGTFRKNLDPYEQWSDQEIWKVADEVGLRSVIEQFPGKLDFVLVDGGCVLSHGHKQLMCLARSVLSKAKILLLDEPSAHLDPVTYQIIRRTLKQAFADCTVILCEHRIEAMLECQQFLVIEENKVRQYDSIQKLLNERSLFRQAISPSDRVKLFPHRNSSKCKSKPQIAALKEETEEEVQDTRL

Row | EC50 [1] [µM] | EC50 [2] [µM] | Maximum % activity (with co-corrector) [3] | Emax (CSE-HRP, without co-corrector) [%] | EC50 [4] [µM] | EC50 [5] [µM] | Maximum % activity (with co-corrector) (with co-corrector (2 μM)) | Emax (without co-corrector) [%] | Emax [6] [%] | Maximum % activity (with co-corrector) [7] | Structure (SMILES)
1 | < 1 | < 1 | +++ (≥350) | > 200 | – | – | – | – | – | – | COc1ccc(C(C)(C)C)cc1CN[C@H]1[C@H](C(C)(C)C)[C@@H](C(=O)O)N(C(=O)Cc2cc(F)ccc2F)[C@H]1c1ccccc1 [II-202]
2 | 1 to 10 | < 1 | +++ (≥350) | 100 to 200 | – | – | – | – | – | – | COc1ncc(C(F)(F)F)cc1CN[C@H]1[C@H](C(C)(C)C)[C@@H](C(=O)O)N(C(=O)[C@@H]2CCCCO2)[C@H]1c1ccccc1Br [Example I-288]
3 | – | – | – | – | 1 to 10 | < 1 | +++ (≥350) | > 200 | – | – | COc1ccc(C(C)(C)C)cc1CN[C@H]1[C@H](C(C)(C)C)[C@@H](C(=O)O)N(C(=O)[C@@H]2CCCCO2)[C@H]1c1ccccc1OC(F)F [Example 59, (2S,3S,4S,5S)-3-tert-butyl-4-{[(5-tert-butyl-2-methoxyphenyl)methyl]amino}-5-[2-(difluoromethoxy)phenyl]-1-[(2S)-oxane-2-carbonyl]pyrrolidine-2-carboxylic acid]
4 | – | – | – | – | 1 to 10 | 1 to 10 | ++ (≥150 and <350) | < 100 | – | – | COc1ccc(C(C)(C)C)cc1CN[C@@H]1[C@@H](C(C)(C)C)[C@H](C(=O)O)N(C(=O)C2CCCCC2)[C@H]1c1ccccc1 [Example I-173]
5 | – | – | – | – | > 10 | 1 to 10 | – | – | < 100 | ++ (≥150 and <350) | COc1cccc([C@H]2[C@@H](Nc3cccc(OC(F)F)n3)[C@H](C(C)(C)C)[C@@H](C(=O)O)N2C(=O)C2(C)CCCOC2)n1 (mixture of isomers) [III-76]
6 | 1 to 10 | 1 to 10 | ++ (≥150 and <350) | < 100 | – | – | – | – | – | – | COc1ccc(F)c(CN[C@H]2[C@H](C(C)(C)C)[C@@H](C(=O)O)N(C(=O)C3CCCCC3)[C@H]2c2ccccc2)c1 [II-106]
7 | – | – | – | – | < 1 | < 1 | – | – | > 200 | +++ (≥350) | COc1ccc2c(c1)CCC2C(=O)N1[C@H](C(=O)O)[C@@H](C(C)(C)C)[C@H](NCc2cc(C(C)(C)C)ccc2OC)[C@@H]1c1ccccc1 (stereo partly shown) [II-365]
8 | – | – | – | – | 1 to 10 | < 1 | +++ (≥350) | – | 100 to 200 | – | COc1ccc(C(C)(C)C)cc1CN[C@H]1[C@H](C(C)(C)C)[C@@H](C(=O)O)N(C(=O)Cc2ccc(Cl)cc2)[C@H]1c1ccccc1 [III-166]
9 | – | – | – | – | 1 to 10 | 1 to 10 | +++ (≥350) | > 200 | – | – | COc1ccc(C(C)(C)C)cc1CN[C@H]1[C@H](C23CC(C2)C3)[C@@H](C(=O)O)N(C(=O)OC(C)C)[C@H]1c1ccccc1 [Example I-226]
10 | – | – | – | – | 1 to 10 | 1 to 10 | +++ (≥350) | > 200 | – | – | COc1ccc(C(C)(C)C)cc1CN[C@H]1[C@H](C(C)(C)C)[C@@H](C(=O)O)N(C(=O)[C@H]2CCC[C@H](OC)C2)[C@H]1c1ccccc1 [Example I-58]
11 | 1 to 10 | 1 to 10 | +++ (≥350) | < 100 | – | – | – | – | – | – | COc1ccc(C(C)(C)C)cc1CN[C@H]1[C@H](C(C)(C)C)[C@@H](C(=O)O)N(C(=O)c2cc(Cl)c(=O)n(C(C)C)c2)[C@H]1c1ccccc1 [II-223]
12 | 1 to 10 | < 1 | +++ (≥350) | 100 to 200 | – | – | – | – | – | – | COc1cc(C(F)(F)F)ccc1CN[C@H]1[C@H](C(C)(C)C)[C@@H](C(=O)O)N(C(=O)[C@@H]2CCCCO2)[C@H]1c1ccccc1Br [Example I-289]
13 | – | – | – | – | 1 to 10 | 1 to 10 | ++ (≥150 and <350) | < 100 | – | – | CC(C)c1cc(C(F)(F)F)cc(N[C@H]2[C@H](C(C)(C)C)[C@@H](C(=O)O)N(C(=O)C3CCCCC3)[C@H]2c2ccccc2)n1 [Example I-54]
14 | – | – | – | – | > 10 | > 10 | + (<150) | – | < 100 | – | COc1cc(Cl)ccc1CN[C@H]1[C@H](C(C)(C)C)[C@@H](C(=O)O)N(C(=O)C2CCCCC2)[C@H]1c1ncccc1OC (racemic) [III-143]
15 | – | – | – | – | 1 to 10 | 1 to 10 | +++ (≥350) | 100 to 200 | – | – | COc1ccc(C(C)(C)C)cc1CN[C@H]1[C@H](C(C)(C)C)[C@@H](C(=O)O)N(C(=O)[C@H]2CCCCO2)[C@H]1c1ccccc1OC(F)F [Example 45, (2S,3S,4S,5S)-3-tert-butyl-4-{[(5-tert-butyl-2-methoxyphenyl)methyl]amino}-5-[2-(difluoromethoxy)phenyl]-1-[(2R)-oxane-2-carbonyl]pyrrolidine-2-carboxylic acid]
16 | – | – | – | – | 1 to 10 | 1 to 10 | – | – | < 100 | +++ (≥350) | COc1ccc(C(C)(C)C)cc1CN[C@H]1[C@H](C(C)(C)C)[C@@H](C(=O)O)N(C(=O)c2cnn(C)c2-c2ccccc2)[C@H]1c1ccccc1 [II-358]
17 | 1 to 10 | 1 to 10 | +++ (≥350) | > 200 | – | – | – | – | – | – | COc1cc(Cl)ccc1CN[C@@H]1[C@@H](C(C)(C)C)[C@H](C(=O)O)N(C(=O)C2CCOC(C)(C)C2)[C@@H]1c1ccccc1N(C)C (mixture of isomers) [II-26]
18 | – | – | – | – | > 10 | 1 to 10 | ++ (≥150 and <350) | – | < 100 | – | COc1ccc(C(F)(F)F)cc1CN[C@H]1[C@H](C(C)(C)C)[C@@H](C(=O)O)N(C(=O)C2CCCCC2)[C@H]1c1ncccc1Cl [III-164]
19 | – | – | – | – | < 1 | < 1 | – | – | 100 to 200 | +++ (≥350) | COc1ccc(C(C)(C)C)cc1CN[C@H]1[C@H](C(C)(C)C)[C@@H](C(=O)O)N(C(=O)c2ccc(Oc3ccccc3)cc2)[C@H]1c1cccnc1N(C)C [II-464]
20 | – | – | – | – | > 10 | 1 to 10 | + (<150) | < 100 | – | – | COc1c(CN[C@@H]2[C@@H](C(C)(C)C)[C@H](C(=O)O)N(C(=O)C3CCCCC3)[C@@H]2c2ccccc2)c(C)nn1C (racemic) [Example I-4]
21 | – | – | – | – | 1 to 10 | 1 to 10 | – | – | > 200 | +++ (≥350) | COc1ccc(C(C)(C)C)cc1CN[C@H]1[C@H](C(C)(C)C)[C@@H](C(=O)O)N(C(=O)C2CCCCO2)[C@H]1c1ccccc1 (stereo partly shown) [II-318]
22 | – | – | – | – | 1 to 10 | < 1 | +++ (≥350) | > 200 | – | – | COc1ccc(C(C)(C)C)cc1CN[C@H]1[C@H](C(C)(C)C)[C@@H](C(=O)O)N(C(=O)[C@@H]2CCCCO2)[C@H]1c1ccccc1C [Example 110, (2S,3S,4S,5S)-3-tert-butyl-4-{[(5-tert-butyl-2-methoxyphenyl)methyl]amino}-5-(2-methylphenyl)-1-[(2S)-oxane-2-carbonyl]pyrrolidine-2-carboxylic acid]
23 | – | – | – | – | 1 to 10 | 1 to 10 | – | – | 100 to 200 | +++ (≥350) | COc1ccc(C(C)(C)C)cc1CN[C@H]1[C@H](C(C)(C)C)[C@@H](C(=O)O)N(C(=O)C2(C)CCc3ccccc32)[C@H]1c1ccccc1 (stereo partly shown) [II-368]
24 | – | – | – | – | < 1 | < 1 | – | – | > 200 | +++ (≥350) | COc1ccc(C2(C)CCC2)cc1CN[C@H]1[C@H](C(C)(C)C)[C@@H](C(=O)O)N(C(=O)C2CCCCC2)[C@H]1c1ccccc1 [II-462]
25 | – | – | – | – | 1 to 10 | 1 to 10 | – | – | 100 to 200 | +++ (≥350) | COc1ccc(OC(F)(F)F)cc1CN[C@H]1[C@H](C(C)(C)C)[C@@H](C(=O)O)N(C(=O)C2CCCCC2)[C@H]1c1cccnc1OC [II-524]
